The record followed here is patent US7098340B2, “Benzyl sulfonamide derivatives” (Warner Lambert Company LLC, priority 2003, dated 2006).

This assay concerns the target T1, androgen receptor (Homo sapiens, UniProt P10275).
T1 sequence (P10275 1-920 Q868H): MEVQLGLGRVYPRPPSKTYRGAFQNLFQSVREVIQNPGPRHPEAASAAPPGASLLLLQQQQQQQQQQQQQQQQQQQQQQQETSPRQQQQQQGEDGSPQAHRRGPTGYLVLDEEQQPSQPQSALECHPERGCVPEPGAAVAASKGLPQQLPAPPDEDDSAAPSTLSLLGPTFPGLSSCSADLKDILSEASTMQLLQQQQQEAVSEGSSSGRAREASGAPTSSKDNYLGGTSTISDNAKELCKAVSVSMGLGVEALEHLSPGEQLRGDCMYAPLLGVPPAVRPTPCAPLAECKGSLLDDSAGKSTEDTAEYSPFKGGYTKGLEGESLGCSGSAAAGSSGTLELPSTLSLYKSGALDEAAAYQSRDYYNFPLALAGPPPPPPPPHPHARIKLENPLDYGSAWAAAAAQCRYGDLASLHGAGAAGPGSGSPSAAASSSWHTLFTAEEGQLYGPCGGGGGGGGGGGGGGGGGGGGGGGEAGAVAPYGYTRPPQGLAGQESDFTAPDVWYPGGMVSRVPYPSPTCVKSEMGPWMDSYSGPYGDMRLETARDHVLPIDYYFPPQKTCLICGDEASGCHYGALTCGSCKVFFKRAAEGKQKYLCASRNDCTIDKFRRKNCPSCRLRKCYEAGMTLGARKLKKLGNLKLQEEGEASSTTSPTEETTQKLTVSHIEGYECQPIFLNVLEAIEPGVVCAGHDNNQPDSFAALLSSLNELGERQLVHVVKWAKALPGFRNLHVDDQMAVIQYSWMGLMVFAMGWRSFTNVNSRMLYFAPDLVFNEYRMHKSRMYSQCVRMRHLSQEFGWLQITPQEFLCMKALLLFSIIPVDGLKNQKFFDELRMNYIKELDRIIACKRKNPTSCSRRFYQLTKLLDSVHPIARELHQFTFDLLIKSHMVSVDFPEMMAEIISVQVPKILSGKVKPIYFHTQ
Kind of assay: AR Antagonist Cell Assay (MMTV-luciferase reporter, DHT-stimulated). The settings on record: MDA-MB453-MMTV clone 54-19 cells; antagonism of 100 pM DHT, 17 hr, luciferase readout. It counts as cell-based. The method, then: The compounds ability to antagonize the effects of androgen on the androgen receptor were determined in the protocol described immediately below.
Experimental Procedure for AR Antagonist Cell Assay
Cell line: MDA-MB453-MMTV clone 54–19. This cell line is a stable transfected cell line with MDA-MB453 cell background (human breast tumor cell expressing high level of androgen receptor). A MMTV minimal promoter containing ARE was first cloned in front of a firefly luciferase reporter gene. Then the cascade was cloned into transfection vector pUV120puro. Electroporation method was used for transfecting MDA-MB-453 cell. Puromycin resistant stable cell line was selected.
Cell Culture Media and Reagents:
Culture medium: DMEM (high glucose, Gibco cat #: 11960-044), 10% FBS, and 1% L-glutamine
Plating medium: DMEM (phenol red free), 10% charcoal treated HyClone serum, 1% L-glutamine
Assay medium: DMEM (phenol red free), 1% charcoal treated HyClone serum, 1% L-glutamine, and 1% penicillin/streptomycin
3× luciferase buffer: 2% beta-mercaptoethanol, 0.6% ATP, 0.0135% luciferine in cell lysis buffer
• 1. Cells are maintained in culture medium, splitting cells when they reach 80–90% confluence • 2. To test compounds, 10,000 cells/well are plated to opaque 96 cell culture plate in 100 ul/well plating medium, culture for overnight at 37° C. in cell culture incubator • 3. Carefully remove plating medium, then add 80 ul/well of pre-warmed assay medium, add 10 ul/well testing compound (final concentration at 10 uM or 1 uM), incubate at 37° C. for 30 minutes • 4. Add 10 ul/well freshly prepared DHT (final concentration at 100 pM) to each well, incubate at 37° C. for 17 hr (overnight) • 5. Add 50 ul/well 3× luciferase buffer, incubate at room temperature for 5 minutes, then count on Luminometer.
The fold induction over background by 100 pM DHT in the absence of testing compounds is standardized as 100% and experimental result is expressed as percentage of inhibition by testing compounds.

`O=c1cc(C(F)(F)F)c2cc(Cc3ccc(S(=O)(=O)NCc4cc(Cl)ccc4F)cc3)ccc2[nH]1` [Example 76, N-(5-Chloro-2-fluorobenzyl)-4-(2-oxo-4-trifluoromethyl-1,2-dihydroquinolin-6-ylmethyl)-benzenesulfonamide] had a half-maximal inhibitory concentration (IC50) of over 10 µM.

The compound `O=c1cc(C(F)(F)F)c2cc(Cc3ccc(S(=O)(=O)N[C@H]4[C@@H]5CC[C@@H](C5)[C@H]4CO)cc3)ccc2[nH]1` (stereo in doubt) [Example 88, N-(3-Hydroxymethyl-bicyclo[2.2.1]hept-2-yl)-4-(2-oxo-4-trifluoromethyl-1,2-dihydroquinolin-6-ylmethyl)-benzenesulfonamide] had a 50% inhibitory concentration (IC50) of over 10 µM.

With `O=c1cc(C(F)(F)F)c2cc(Cc3ccc(S(=O)(=O)Nc4ccc5c(c4)CCC5)cc3)ccc2o1` [Example 127, N-Indan-5-yl-4-(2-oxo-4-trifluoromethyl-2H-chromen-6-ylmethyl)benzenesulfonamide], the IC50 was 2.77 µM. This counts as single-digit micromolar.

`CC(C)N(c1ccccc1)c1ccc(NS(=O)(=O)c2ccc(Cc3ccc4[nH]c(=O)cc(C(F)(F)F)c4c3)cc2)cc1` [Example 48, N-[4-(Isopropylphenylamino)-phenyl]-4-(2-oxo-4-trifluoromethyl-1,2-dihydroquinolin-6-ylmethyl)-benzenesulfonamide] came in with a half-inhibitory concentration (IC50) of 4.97 µM.

`O=c1cc(C(F)(F)F)c2cc(Cc3ccc(S(=O)(=O)Nc4cccc5cccnc45)cc3)ccc2[nH]1` [Example 30, 4-(2-Oxo-4-trifluoromethyl-1,2-dihydroquinolin-6-ylmethyl)-N-quinolin-8-ylbenzenesulfonamide]: the concentration for half-maximal inhibition (IC50) is over 10 µM.

In the case of `O=c1cc(C(F)(F)F)c2cc(Cc3ccc(S(=O)(=O)Nc4cccc(OCc5ccccc5)c4)cc3)ccc2[nH]1` [Example 44, N-(3-Benzyloxyphenyl)-4-(2-oxo-4-trifluoromethyl-1,2-dihydroquinolin-6-ylmethyl)-benzenesulfonamide], half-maximal inhibition (IC50) was put at 2.8 µM.

For `Cc1ccccc1CNS(=O)(=O)c1ccc(Cc2ccc3oc(=O)cc(C(F)(F)F)c3c2)cc1` [Example 171, N-(2-Methylbenzyl)-4-(2-oxo-4-trifluoromethyl-2H-chromen-6-ylmethyl)benzenesulfonamide], the IC50 turned out to be 9.62 µM.

Consider `O=c1cc(C(F)(F)F)c2cc(Cc3ccc(S(=O)(=O)NC(CCO)c4ccccc4)cc3)ccc2[nH]1` (stereo not shown) [Example 72, N-(3-Hydroxy-1-phenylpropyl)-4-(2-oxo-4-trifluoromethyl-1,2-dihydroquinolin-6-ylmethyl)-benzenesulfonamide], for which the IC50 is over 10 µM.

With `O=c1cc(C(F)(F)F)c2cc(Cc3ccc(S(=O)(=O)Nc4cccc(CO)c4)cc3)ccc2o1` [Example 122, N-(3-Hydroxymethylphenyl)-4-(2-oxo-4-trifluoromethyl-2H-chromen-6-ylmethyl)-benzenesulfonamide], the IC50 came out at 1.83 µM.

With `CC(C)c1ccc(NS(=O)(=O)c2ccc(Cc3ccc4oc(=O)cc(C(F)(F)F)c4c3)cc2)cc1` [Example 130, N-(4-Isopropylphenyl)-4-(2-oxo-4-trifluoromethyl-2H-chromen-6-ylmethyl)-benzenesulfonamide], the 50% inhibitory concentration (IC50) turned out to be 3.91 µM.

Regarding `O=c1cc(C(F)(F)F)c2cc(Cc3ccc(S(=O)(=O)Nc4ccccc4)cc3)ccc2o1` [Example 113, 4-(2-Oxo-4-trifluoromethyl-2H-chromen-6-ylmethyl)-N-phenylbenzenesulfonamide], inhibition was half-maximal at 0.72 µM (IC50).

With `O=c1cc(C(F)(F)F)c2cc(Cc3ccc(S(=O)(=O)NCCc4ccc(Cl)cc4)cc3)ccc2[nH]1` [Example 74, N-[2-(4-Chlorophenyl)ethyl]-4-(2-oxo-4-trifluoromethyl-1,2-dihydroquinolin-6-ylmethyl)-benzenesulfonamide], the concentration for half-maximal inhibition (IC50) is over 10 µM.

Compound `COCCNS(=O)(=O)c1ccc(Cc2ccc3[nH]c(=O)cc(C(F)(F)F)c3c2)cc1` [Example 53, N-(2-Methoxyethyl)-4-(2-oxo-4-trifluoromethyl-1,2-dihydroquinolin-6-ylmethyl)-benzenesulfonamide] returned an IC50 of over 10 µM.

Take `CC(O)c1cccc(NS(=O)(=O)c2ccc(Cc3ccc4oc(=O)cc(C(F)(F)F)c4c3)cc2)c1` (stereo not shown) [Example 133, N-[3-(1-Hydroxyethyl)phenyl]-4-(2-oxo-4-trifluoromethyl-2H-chromen-6-ylmethyl)-benzenesulfonamide]: the IC50 was found to be 6.91 µM.

As to `O=c1cc(C(F)(F)F)c2cc(Cc3ccc(S(=O)(=O)Nc4cccc(C(F)(F)F)c4)cc3)ccc2o1` [Example 145, 4-(2-Oxo-4-trifluoromethyl-2H-chromen-6-ylmethyl)-N-(3-trifluoromethylphenyl)-benzenesulfonamide], the half-inhibitory concentration (IC50) came to 1.72 µM. Against the preceding compound, the IC50 is about 4-fold lower.

The compound `CC(O)c1cccc(NS(=O)(=O)c2ccc(Cc3ccc4[nH]c(=O)cc(C(F)(F)F)c4c3)cc2)c1` (stereo not shown) [Example 23, N[-3-(1-Hydroxyethyl)phenyl]-4-(2-oxo-4-trifluoromethyl-1,2-dihydroquinolin-6-ylmethyl)-benzenesulfonamide] displayed a half-inhibitory concentration (IC50) of 1.67 µM.

The compound `CC(C)Oc1cccc(NS(=O)(=O)c2ccc(Cc3ccc4oc(=O)cc(C(F)(F)F)c4c3)cc2)c1` [Example 142, N-(3-Isopropoxyphenyl)-4-(2-oxo-4-trifluoromethyl-2H-chromen-6-ylmethyl)-benzenesulfonamide] gave a 50% inhibitory concentration (IC50) of about 10 µM.

`Cc1ccc(F)cc1NS(=O)(=O)c1ccc(Cc2ccc3[nH]c(=O)cc(C(F)(F)F)c3c2)cc1` [Example 25]: the IC50 came out at 1.12 µM.

As for `O=c1cc(C(F)(F)F)c2cc(Cc3ccc(S(=O)(=O)Nc4ccccc4CO)cc3)ccc2o1` [Example 121, N-(2-Hydroxymethylphenyl)-4-(2-oxo-4-trifluoromethyl-2H-chromen-6-ylmethyl)-benzenesulfonamide], it took 3.17 µM to reach half-maximal inhibition (IC50). Against the preceding compound, the IC50 is about 2.8-fold higher.

Take `O=c1cc(C(F)(F)F)c2cc(Cc3ccc(S(=O)(=O)N(Cc4ccccc4)Cc4ccccc4)cc3)ccc2o1` [Example 109, N,N-Dibenzyl-4-(2-oxo-4-trifluoromethyl-2H-chromen-6-ylmethyl)benzenesulfonamide]: the IC50 stood at 8.26 µM.

In the case of `O=c1cc(C(F)(F)F)c2cc(Cc3ccc(S(=O)(=O)NCC4CCCC[C@H]4O)cc3)ccc2o1` (stereo in doubt) [Example 177, N-(2-Hydroxycyclohexylmethyl)-4-(2-oxo-4-trifluoromethyl-2H-chromen-6-ylmethyl)benzenesulfonamide], the 50% inhibitory concentration (IC50) is 5.77 µM.

Compound `O=c1cc(C(F)(F)F)c2cc(Cc3ccc(S(=O)(=O)NCCc4ccccc4)cc3)ccc2[nH]1` [Example 57, 4-(2-Oxo-4-trifluoromethyl-1,2-dihydroquinolin-6-ylmethyl)-N-phenethylbenzenesulfonamide] gave an IC50 of over 10 µM.

`COc1cccc(NS(=O)(=O)c2ccc(Cc3ccc4[nH]c(=O)cc(C(F)(F)F)c4c3)cc2)c1` [Example 50, N-(3-Methoxyphenyl)-4-(2-oxo-4-trifluoromethyl-1,2-dihydroquinolin-6-ylmethyl)-benzenesulfonamide] showed a half-inhibitory concentration (IC50) of over 10 µM.

On to `CC(C)(C)CCNS(=O)(=O)c1ccc(Cc2ccc3[nH]c(=O)cc(C(F)(F)F)c3c2)cc1` [Example 54, N-(3,3-Dimethylbutyl)-4-(2-oxo-4-trifluoromethyl-1,2-dihydroquinolin-6-ylmethyl)-benzenesulfonamide], for which the IC50 is over 10 µM.

`CCc1ccc(NS(=O)(=O)c2ccc(Cc3ccc4oc(=O)cc(C(F)(F)F)c4c3)cc2)cc1` [Example 120, N-(4-Ethylphenyl)-4-(2-oxo-4-trifluoromethyl-2H-chromen-6-ylmethyl)-benzenesulfonamide] came in with an IC50 of 1.32 µM.
